Each block holds one compound with its values, some of them ahead of it. *1 amine or outer side, *2 acyl side, *3 side chain or, on linkers, in order; H or OH if unused. Where a SMILES comes first, the peptide text is derived from it. Bridges are numbered along the chain shown (N, C = ends). Primed or numbered codes have the meaning given here. Side-chain parts run from the residue outwards. [ ]: non-standard residue; d: D form. The star is where a group is joined. Trp(5-OMe) = COc1ccc2[nH]cc(C[C@H](N)C(=O)O)c2c1; DBCO = C1#Cc2ccccc2N(*)Cc2ccccc21; Igl = N[C@H](C(=O)O)C1Cc2ccccc2C1; PEG5 = NCCOCCOCCOCCOCCOCCC(=O)O; Pen = CC(C)(S)[C@H](N)C(=O)O; Suc = O=C(CCC(=O)[*:2])[*:1]; DBCO′ = dibenzocyclooctyne; Orn = NCCC[C@H](N)C(=O)O; Pra = C#CC[C@H](N)C(=O)O; Acm = CC(=O)NC*
Experiments:
[1] = molecular target: T1, rhEGFR-Fc (Homo sapiens, UniProt P00533); assay: SPR nanoparticle binding, without EGF; conditions: 1 mg/mL; for nanoparticle binding: FIG. 9C
T1 construct: purchased R&D Systems 344-ER-050
Procedure: (§1) Surface plasmon resonance (SPR) binding studies were carried out on a Biacore T200 instrument (GE Healthcare). Approximately 10,000 RU of anti-Fc antibody (GE Healthcare, Cat #BR100839) was immobilized via amine coupling on each of flow cells 1 and 2 of a CM5 dextran-coated gold sensor chip (GE Healthcare, Cat #BR100530). Fc tagged recombinant human EGFR (rhEGFR-Fc, R&D systems, Cat #344-ER-050) was reconstituted at 10 μg/mL in PBS and captured on flow cell 2. The contact time and resulting amount of rhEGFR-Fc capture was varied based on the nature of the analyte, namely whether it was a peptide or nanoparticle.
Nanoparticle binding assays were carried out in 10 mM HBS-EP+ buffer (GE Healthcare, Cat #BR100669) at 25° C. Nanoparticles were injected over the rh EGFR-Fc surface for 60 s, followed by dissociation for 60 s and regeneration with a 10 s pulse of 3M MgCl2. A fresh rhEGFR-Fc surface was generated for each concentration of each nanoparticle tested. Nanoparticle sensograms could not be fit accurately to the 1:1 Langmuir kinetic model due to the multivalent nature of the binding interaction between nanoparticle and target. Instead, nanoparticle binding data was presented as a plot of binding response vs. concentration at a single time point after the injection end.

[2] = molecular target: T2, recombinant human EGFR (Homo sapiens, UniProt P00533); assay: P2 competition ELISA (P2-Biotin dimer tracer, 50 nM EGF); assay type: binding
T2 construct: Fc; purchased R&D Systems
Procedure: Plates were blocked for 2 h with 2% BSA in PBS at RT. […] Plates were washed three times with PBS containing 0.05% Tween-20 (PBS-T) and then incubated with a 1:10,000 dilution of streptavidin-HRP (Thermo Fisher Scientific) diluted in assay buffer for 90 min at RT. Plates were washed an additional three times with PBS-T, and then incubated with TMB substrate (BioFx) for 15 min at RT. Reactions were stopped with stop solution (BioFx) and absorbance was read at 450 nm in a microplate reader (SpectraMax M5e, Molecular Devices).

[3] = molecular target: T3, Fc tagged recombinant human EGFR (rhEGFR-Fc) (Homo sapiens, UniProt P00533); assay type: binding; conditions: for Result: Table 14, relative affinity compared to KD of parent P2 (FIG. 16); for KD: Table 6, TGF fragments
T3 construct: purchased R&D Systems 344-ER-050
Procedure: as §1, with “Fc tagged recombinant human EGFR (rhEGFR-Fc, R&D systems, Cat #344-ER-050) was reconstituted at 10 μg/mL in PBS and captured on flow cell 2.” left out
Peptide binding assays were carried out in 10 mM PBS buffer supplemented with 0.05% surfactant P20 and 5% DMSO by volume, at 25° C. Peptides were injected over the rhEGFR-Fc surface for 60 s, followed by dissociation (buffer injection) for 60 s and regeneration with a 10 s pulse of 3M MgCl2. A fresh rhEGFR-Fc surface was generated for each concentration of each peptide tested. Peptide binding data was analyzed by fitting to a 1:1 Langmuir kinetic model to obtain the on-rate (ka), off-rate (kd) and/or equilibrium binding constant (KD) of the interaction.

nanoparticle binding signal ([1]; 5% and 10% ligand density, FIG. 8B): comparable to EGF-NP
nanoparticle binding ([1]; 5% ligand density): minimal binding
nanoparticle binding ([1]; 10% ligand density): more robust binding
Compound: Ac-SECFPLAPDWLSCILGGK(DBCO)-CONH2 (Ac-SECFPLAPDWLSCILGGK(DBCO′)-NH2; disulfide 3-13 (inferred)) [Peptide P1]

Compound: COc1ccc2[nH]cc(C[C@@H]3NC(=O)[C@H](C(C)C)NC(=O)[C@H](CCC(=O)O)NC(=O)[C@H](C4Cc5ccccc5C4)NC(=O)[C@H]([C@@H](C)O)NC(=O)[C@@H](NC(=O)[C@H](C)NC(=O)[C@H](CC(=O)O)NC(C)=O)C(C)(C)SSC(C)(C)[C@@H](C(=O)N[C@@H](CC(C)C)C(=O)N[C@@H](CCC(N)=O)C(=O)NCC(=O)NCC(=O)N[C@@H](CCCCNC(=O)CCOCCOCCOCCOCCOCCNC(=O)CCC(=O)N4Cc5ccccc5C#Cc5ccccc54)C(N)=O)NC(=O)[C@H](CCC(=O)O)NC(=O)[C@H](CCCNC(=N)N)NC(=O)CNC3=O)c2c1 [P2-2/55/102, Ac-DAPenT(2Ind)GEV(5MeO)WGREPenLQGGK(DBCO)-CONH2] (Ac-DA[Pen]T[Igl]EV[Trp(5-OMe)]GRE[Pen]LQGGK([PEG5-Suc-DBCO])-NH2; disulfide 3-12)
IC50 [2]: 609 nM

Compound: CC(=O)N[C@@H](CC(=O)O)C(=O)N1CCC[C@H]1C(=O)N[C@@H]1C(=O)N[C@@H]([C@@H](C)O)C(=O)N[C@@H](Cc2c[nH]c3ccccc23)C(=O)N[C@@H](CCC(=O)O)C(=O)N[C@@H](C(C)C)C(=O)N[C@@H](Cc2c[nH]c3ccccc23)C(=O)NCC(=O)N[C@@H](CCCNC(=N)N)C(=O)N[C@@H](CCC(=O)O)C(=O)N[C@H](C(=O)N[C@@H](CC(C)C)C(=O)N[C@@H](CCC(N)=O)C(=O)NCC(=O)NCC(=O)N[C@@H](CCCCNC(=O)CCOCCOCCOCCOCCOCCNC(=O)CCC(=O)N2Cc3ccccc3C#Cc3ccccc32)C(N)=O)C(C)(C)SSC1(C)C [Peptide P2-55]
binding of free peptide to EGFR by SPR, in words [3]: improved affinity relative to the parent peptide
Result [3]: 1.18

Compound: C#CC[C@H](NC(=O)CN)C(=O)NCC(=O)NCC(=O)N[C@@H](CSCNC(C)=O)C(=O)N[C@@H](Cc1ccccc1)C(=O)N[C@@H](Cc1c[nH]cn1)C(=O)NCC(=O)N[C@H](C(=O)N[C@@H](CS)C(=O)N[C@@H](CCCNC(=N)N)C(=O)N[C@@H](Cc1ccccc1)C(=O)N[C@H](C(N)=O)C(C)C)[C@@H](C)O [TGFf-10] (H-G[Pra]GGC(Acm)FHGTCRFV-NH2)
KD [3]: No binding

Result [3]: No binding
Compound: H2N-GDPDTWEVWGREKLQ-GG-Par-G-CONH2 (H-GDPDTWEVWGREKLQGG[Pra]G-NH2; lactam 4-13; SMILES C#CC[C@H](NC(=O)CNC(=O)CNC(=O)[C@H](CCC(N)=O)NC(=O)[C@H](CC(C)C)NC(=O)[C@@H]1CCCCNC(=O)C[C@H](NC(=O)[C@@H]2CCCN2C(=O)[C@H](CC(=O)O)NC(=O)CN)C(=O)N[C@@H]([C@@H](C)O)C(=O)N[C@@H](Cc2c[nH]c3ccccc23)C(=O)N[C@@H](CCC(=O)O)C(=O)N[C@@H](C(C)C)C(=O)N[C@@H](Cc2c[nH]c3ccccc23)C(=O)NCC(=O)N[C@@H](CCCNC(=N)N)C(=O)N[C@@H](CCC(=O)O)C(=O)N1)C(=O)NCC(N)=O) [Peptide P2-64]

Compound: C#CC[C@H](NC(=O)CNC(=O)CNC(=O)[C@H](CCC(N)=O)NC(=O)[C@H](CC(C)C)NC(=O)[C@@H]1CSSC[C@H](NC(=O)[C@@H]2CCCN2C(=O)[C@@H](N)CC(=O)O)C(=O)N[C@@H]([C@@H](C)O)C(=O)N[C@@H](Cc2ccccc2)C(=O)N[C@@H](CCC(=O)O)C(=O)N[C@@H](C(C)C)C(=O)N[C@@H](Cc2c[nH]c3ccccc23)C(=O)NCC(=O)N[C@@H](CCCNC(=N)N)C(=O)N[C@@H](CCC(=O)O)C(=O)N1)C(=O)NCC(N)=O [Peptide P2-29] (H-DPCTFEVWGRECLQGG[Pra]G-NH2; disulfide 3-12)
KD/P2 KD ([3]; Table 13, point mutations): 9.24

Compound: C#CC[C@H](NC(=O)CN)C(=O)NCC(=O)NCC(=O)N[C@@H](CCC(N)=O)C(=O)N[C@@H](CCC(=O)O)C(=O)N[C@@H](CC(=O)O)C(=O)N[C@@H](CCCCN)C(=O)N1CCC[C@H]1C(=O)N[C@@H](C)C(=O)N[C@@H](CSCNC(C)=O)C(=O)N[C@H](C(=O)N[C@@H](CS)C(=O)N[C@@H](Cc1c[nH]cn1)C(N)=O)C(C)C [TGFf-8, H2N-G-Par-GG-QEDKPAC(Acm)VCH-CONH2] (H-G[Pra]GGQEDKPAC(Acm)VCH-NH2)
KD [3]: No binding

Compound: C#CC[C@H](NC(=O)CN)C(=O)NCC(=O)NCC(=O)N[C@@H](CO)C(=O)NCC(=O)N[C@@H](Cc1ccc(O)cc1)C(=O)N[C@H](C(=O)NCC(=O)N[C@@H](C)C(=O)N[C@@H](CCCNC(=N)N)C(=O)N[C@@H](CS)C(=O)N[C@@H](CCC(=O)O)C(=O)N[C@@H](Cc1c[nH]cn1)C(N)=O)C(C)C [TGFf-6] (H-G[Pra]GGSGYVGARCEH-NH2)
KD [3]: No binding

Compound: CC(=O)N[C@@H](CC(=O)O)C(=O)N[C@@H](C)C(=O)N[C@H]1CSSC[C@@H](C(=O)N[C@@H](CC(C)C)C(=O)N[C@@H](CCC(N)=O)C(=O)NCC(=O)NCC(=O)N[C@@H](CCCCNC(=O)CCOCCOCCOCCOCCOCCNC(=O)CCC(=O)N2Cc3ccccc3C#Cc3ccccc32)C(N)=O)NC(=O)[C@H](CCC(=O)O)NC(=O)[C@H](CCCNC(=N)N)NC(=O)CNC(=O)[C@H](Cc2c[nH]c3ccccc23)NC(=O)[C@H](C(C)C)NC(=O)[C@H](CCC(=O)O)NC(=O)[C@H](Cc2c[nH]c3ccccc23)NC(=O)[C@H]([C@@H](C)O)NC1=O [Peptide P2-2]
binding of free peptide to EGFR by SPR, in words [3]: improved affinity relative to the parent peptide

KD [3]: Not soluble
Compound: H2N-G-Par-GG-CPDSHTQFC(Acm)FHGTC-CONH2 (H-G[Pra]GGCPDSHTQFC(Acm)FHGTC-NH2; disulfide 5-18; SMILES C#CC[C@H](NC(=O)CN)C(=O)NCC(=O)NCC(=O)N[C@H]1CSSC[C@@H](C(N)=O)NC(=O)[C@H]([C@@H](C)O)NC(=O)CNC(=O)[C@H](Cc2c[nH]cn2)NC(=O)[C@H](Cc2ccccc2)NC(=O)[C@H](CSCNC(C)=O)NC(=O)[C@H](Cc2ccccc2)NC(=O)[C@H](CCC(N)=O)NC(=O)[C@H]([C@@H](C)O)NC(=O)[C@H](Cc2c[nH]cn2)NC(=O)[C@H](CO)NC(=O)[C@H](CC(=O)O)NC(=O)[C@@H]2CCCN2C1=O) [TGFf-3]

Result [3]: No binding
Compound: H2N-GDPDTWEVWGRE-Orn-LQ-GG-Par-G-CONH2 (H-GDPDTWEVWGRE[Orn]LQGG[Pra]G-NH2; lactam 4-13; SMILES C#CC[C@H](NC(=O)CNC(=O)CNC(=O)[C@H](CCC(N)=O)NC(=O)[C@H](CC(C)C)NC(=O)[C@@H]1CCCNC(=O)C[C@H](NC(=O)[C@@H]2CCCN2C(=O)[C@H](CC(=O)O)NC(=O)CN)C(=O)N[C@@H]([C@@H](C)O)C(=O)N[C@@H](Cc2c[nH]c3ccccc23)C(=O)N[C@@H](CCC(=O)O)C(=O)N[C@@H](C(C)C)C(=O)N[C@@H](Cc2c[nH]c3ccccc23)C(=O)NCC(=O)N[C@@H](CCCNC(=N)N)C(=O)N[C@@H](CCC(=O)O)C(=O)N1)C(=O)NCC(N)=O) [Peptide P2-65]

Compound: COc1ccc2[nH]cc(C[C@@H]3NC(=O)[C@H](C(C)C)NC(=O)[C@H](CCC(=O)O)NC(=O)[C@H](C4Cc5ccccc5C4)NC(=O)[C@H]([C@@H](C)O)NC(=O)[C@@H](NC(=O)[C@@H]4CCCN4C(=O)[C@H](CC(=O)O)NC(C)=O)C(C)(C)SSC(C)(C)[C@@H](C(=O)N[C@@H](CC(C)C)C(=O)N[C@@H](CCC(N)=O)C(=O)NCC(=O)NCC(=O)N[C@@H](CCCCNC(=O)CCOCCOCCOCCOCCOCCNC(=O)CCC(=O)N4Cc5ccccc5C#Cc5ccccc54)C(N)=O)NC(=O)[C@H](CCC(=O)O)NC(=O)[C@H](CCCNC(=N)N)NC(=O)CNC3=O)c2c1 [P2-55/102, Ac-DPPenT(2Ind)GEV(5MeO)WGREPenLQGGK(DBCO)-CONH2] (Ac-DP[Pen]T[Igl]EV[Trp(5-OMe)]GRE[Pen]LQGGK([PEG5-Suc-DBCO])-NH2; disulfide 3-12)
IC50 [2]: 829 nM
